What was measured:
[1] = several behavioral studies; cited from earlier work
[2] = in vivo and in vitro; cited from earlier work
[3] = system: C17-2 mouse brain neural stem cells; experiment: Cell proliferation of mouse brain neural stem cells (MTT, OD 490 nm); assay type: cell-based; settings: for Result (OD value): MTT at 4th day, OD 490 nm; for Cell proliferation %: control group = 100%
Description: C17-2 mouse brain neural stem cells (C17-2 cells) were continuously cultured in 1640 medium with 10% horse serum and 10% fetal bovine serum at 5% CO2 and 37° C., dissociated to single cell suspension by 0.1% trypsin solution, centrifuged at 1,000 rpm×5 min and rinsed with medium. The cells were seeded in a 96-well plate, 1×10^3 cells per well, 3 well per group, continuously cultured. After 24 hours, the test compounds were added, doses of each of the C5-hydroxyl substituted clausenamides and N-substituted clausenamide derivatives were 0.1 μM, 1 μM and 10 μM respectively. The growth situation of the cells was observed under a microscope, once daily. At the 4th day, media in each well were pipetted, phosphate buffer solution containing MTT was added. 4 Hours later, the fluid was discarded, and a DMSO solution was added. The cells were incubated at 37° C. for 10 min under shaken. OD values on 490 nm of each well were detected. Set the growth rate of the control group as 100%, and the growth rates of each dose were given by comparison with the control group and t-tested.

rat hippocampus = experiment: LTP / synaptic transmission in rat hippocampus (population spike amplitude, dentate gyrus); assay type: in vivo; settings: lateral ventricle, prior administration = 100
Excerpt: Male adult SD Rats (5 per group) were anesthetized with 20% (w/v) urethane carbamate (1.0 g·kg^−1, ip) and fixed in a stereotaxic head holder. According to the reference of Pellegrino stereotaxic spectrum of rat, recording electrodes (stainless steel needle of 0.2 mm diameter were insulted except for 0.2 mm tip) were placed in the dentate gyrus granule cell layer. The stimulating electrodes (two stainless steel needles of 0.15 mm diameter coated with Teflon except for the 0.2 mm tip, and the distance between two needles was 0.5 mm) were planted between the fibre of perforant path (PP) in rat. Continuous pulse was provided by electronic stimulator, and delivered to PP through stimulus isolator and stimulating electrodes. Electrode depth was then adjusted until a typical excitatory postsynaptic potential (EPSP) was observed. Electric current was magnified by amplifier and collected by computer, then processed by DataWave software. The stimulus intensity was adjusted to produce population spike (PS) with a slope that was ≈50% of the maximum. Single-pulse test stimuli were at an interval of 30 sec during the experiment. Population spike amplitude (PSA) was recorded and the relatively percent of PSA was calculated according to the formula (PSA/basic value).

CN1C(=O)C(O)C(c2ccccc2)C1C(O)c1ccccc1 (racemic) [clausenamide]
nootropic effect [1]: Significant nootropic effect

O=C1C(O)C(c2ccccc2)C(C(O)c2ccccc2)N1CO (single isomer, unassigned; (-)) [(−)CM1, (−) N-hydroxymethyl norclausenamide]
content in the metabolites of (−) clausenamide compared with the corresponding (+) isomers in the metabolites of (+) clausenamide [2]: significantly higher

CN1C(=O)C(O)C(c2ccccc2)C1(O)C(O)c1ccccc1 (single isomer, unassigned; (-)) [(−)CM2, (−) 5-hydroxyclausenamide]
content in the metabolites of (−) clausenamide compared with the corresponding (+) isomers in the metabolites of (+) clausenamide [2]: significantly higher

CN1C(=O)[C@@H](O)[C@H](c2ccccc2)[C@]1(O)[C@@H](O)c1ccccc1 [(−)II3, (−)-(3S,4S,5S,6S)-5-hydroxy-clausenamide]
Result (OD value) ([3]; dose 10^−5 M): 0.088 ± 0.006 | Cell proliferation % ([3]; dose 10^−5 M): 64.23% | Result (OD value) ([3]; dose 10^−6 M): 0.187 ± 0.020 | Cell proliferation % ([3]; dose 10^−6 M): 136.50% | Result (OD value) ([3]; dose 10^−7 M): 0.168 ± 0.076 | Cell proliferation % ([3]; dose 10^−7 M): 122.63% | Relative PS (PSA %) (rat hippocampus; 15 min after administration): 92.83 ± 17.54% | Relative PS (PSA %) (rat hippocampus; 30 min after administration): 87.11 ± 30.54% | Relative PS (PSA %) (rat hippocampus; 45 min after administration): 97.34 ± 25.71% | Relative PS (PSA %) (rat hippocampus; 60 min after administration): 98.30 ± 28.59%

Source: patent US20060167276A1, “Clausenamide c5-hydroxyl derivatives and n-substituted derivatives, processes for their preparation, its composition and use” (priority 2002, published 2006)
